Measured values from patent publication US20150320738A1, “BERBERINE-CONTAINING PHARMACEUTICAL COMPOSITION FOR INHIBITING CANCER STEM CELL GROWTH OR CARCINOMA METASTASIS AND APPLICATION THEREOF” (National Taiwan Normal University, priority 2011, published 2015).

Assays:
Assay type in all cases: cell-based
A549 cell line = assay: MTT cell proliferation assay, A549; details: Homo sapiens, 48 hours, read-out: half maximal inhibitory concentration (IC50)
Procedure: (§1) NSCLC cell lines A549, NCI-H460, NCI-H520 and normal lung cell line MRC5 were obtained from Bioresource Collection and Research Center (BCRC, Taiwan). A549 cell line was cultured with F12K medium (21127, GIBCO, Carlsbad, U.S.A.). Both NCI-H460 and NCI-H520 cell lines were cultured with RPMI1640 medium (23400, GIBCO, Carlsbad, U.S.A.). MRC5 cell line was culture with MEM medium (41500, GIBCO, Carlsbad, U.S.A.). All media mentioned above contained 10% FBS (10437, GIBCO, Carlsbad, U.S.A.). All cultures were maintained in an incubator (Thermo forma 370, Waltham, U.S.A.) with 5% CO2 at 37° C. Cells were seeded at 1×10^4 cells per well in a 24-well plate for 16 hours. After that, a sample such as the berberine solutions with different concentrations and the extract of C. chinensis was added into 24-well plate directly, and cultured at 37° C. for 24, 48, and 72 hours, respectively. Thiazolyl blue tetrazolium bromide (MTT, m5655, Sigma, St. Louis, U.S.A.) solution was prepared in a concentration of 5.5 mg/ml with phosphate buffered saline (PBS) filtered by 0.22 μm membrane. The MTT solution (50 μl) was added to the wells of 24-well plates with A549, NCI-H460, NCI-H520, and MRC5 cell lines cultured after 24, 48, and 72 hours. The plates were incubated at 37° C. for 2 hours and then moved out. The media of the wells were removed. […]

NCI-H460 cell line = assay: MTT cell proliferation assay, NCI-H460; details: Homo sapiens, 48 hours, read-out: half maximal inhibitory concentration (IC50)
Procedure: as §1

NCI-H520 cell line = assay: MTT cell proliferation assay, NCI-H520; details: Homo sapiens, 48 hours, read-out: half maximal inhibitory concentration (IC50)
Procedure: as §1

A549 cells = assay: Side population analysis (Hoechst33342, flow cytometry); details: A549, dose of IC50, 48 hours
Procedure: A549 cells were seeded in the number of about 3×10^5 in 10 cm dish to give adequate number of cells for analysis. The cells were treated with the extract of C. chinensis and the berberine solution in the dose of IC50 for 48 hours. Then, the treated cells were harvested by typsinization and centrifugation. The harvested cells were re-suspended in the number of 1×10^6 cells/ml in culture medium containing 2% FBS. Hoechst33342 dye (5 μg/ml, Invitrogen, Carlsbad, U.S.A.) was added with or without reserpine (50 μM, Sigma, St. Louis, U.S.A.) as a blocking reagent. The cells were further incubated at 37° C. for 2 hours under frequently gentle vortex to ensure uniform staining, and then washed cells with PBS. PI staining (20 ng/ml) was used to determine the live/dead cells. In order to set up the fluorescence compensation, single staining and non-staining groups were prepared. The cell samples were filtered with nylon mesh (35 μm) to prevent cell aggregation. PI-positive dead cells were primary excluded to avoid false positive signals. Then, the Hoechst blue and red dot plotting was used to determine the side population. A gate of a side population was defined by the diminishing region of two samples groups, i.e. with or without reserpine. The percentages of the side population were further analyzed by Flowjo software (TreeStar, Ashland, U.S.A.).

IC50 (A549 cell line): ~7 µM
IC50 (NCI-H460 cell line): ~40 µM
IC50 (NCI-H520 cell line): ~20 µM
SMILES: COc1ccc2cc3[n+](cc2c1OC)CCc1cc2c(cc1-3)OCO2 [berberine solution, berberine chloride]
side population (SP) (A549 cells): considerably diminished
